Measured values: patent US9738634B2, “Heterocyclic amide compound and herbicide” (SYNGENTA PARTICIPATIONS AG, priority 2013, dated 2017)

Key:
Type in all cases: in vivo
barnyard grass [1] = experiment: Test Example 1: weedkilling efficacy, preemergent weed treatment in the submerged state; A: barnyard grass; conditions: treatment dosage 320 g/ha
Method in brief: (§1)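 Emulsion diluted with water to the specified per-hectare dosage is applied onto flood water (4 cm) over alluvial soil on the sowing day, with barnyard grass, bulrush and pondweed seeded and rice (2.5-leaf) transplanted; plants grow at 25–30 °C and are rated at 3 weeks.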

bulrush [2] = experiment: Test Example 1: weedkilling efficacy, preemergent weed treatment in the submerged state; B: bulrush; conditions: treatment dosage 320 g/ha
Method in brief: as §1

oval-leafed pondweed [3] = experiment: Test Example 1: weedkilling efficacy, preemergent weed treatment in the submerged state; C: oval-leafed pondweed; conditions: treatment dosage 320 g/ha
Method in brief: as §1

transplanted rice = experiment: Test Example 1: preemergent weed treatment in the submerged state, effect on crop; a: transplanted rice; conditions: treatment dosage 320 g/ha
Method in brief: as §1

barnyard grass [4] = experiment: Test Example 2: weedkilling efficacy, growth period weed treatment in the submerged state; A: barnyard grass; conditions: treatment dosage 320 g/ha
Method in brief: (§2)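 First, alluvial soil in pots is flooded to 4 cm and mixed seed is sown. Next, plants grow in a greenhouse at 25 to 30° C until the 1-2 leaf stage. Then diluted emulsion is applied onto the water surface at the given g/ha rate, and injury is assessed after 3 weeks.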

bulrush [5] = experiment: Test Example 2: weedkilling efficacy, growth period weed treatment in the submerged state; B: bulrush; conditions: treatment dosage 320 g/ha
Method in brief: as §2

oval-leafed pondweed [6] = experiment: Test Example 2: weedkilling efficacy, growth period weed treatment in the submerged state; C: oval-leafed pondweed; conditions: treatment dosage 320 g/ha
Method in brief: as §2

crabgrass = experiment: Test Example 3: weedkilling efficacy through soil treatment; D: crabgrass; conditions: soil treatment
Method in brief: (§3)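 Crop and weed responses were judged three weeks after a uniform surface spray of the water-diluted emulsion at the given g/ha rate. Seeds sat beneath about 1.5 cm of sterilized diluvial soil, and boxes stood in a greenhouse at 25 to 30° C.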

green foxtail = experiment: Test Example 3: weedkilling efficacy through soil treatment; E: green foxtail; conditions: soil treatment
Method in brief: as §3

barnyard grass [7] = experiment: Test Example 3: weedkilling efficacy through soil treatment; F: barnyard grass; conditions: soil treatment
Method in brief: as §3

wild oat = experiment: Test Example 3: weedkilling efficacy through soil treatment; G: wild oat; conditions: soil treatment
Method in brief: as §3

black-grass = experiment: Test Example 3: weedkilling efficacy through soil treatment; H: black-grass; conditions: soil treatment
Method in brief: as §3

Italian ryegrass = experiment: Test Example 3: weedkilling efficacy through soil treatment; I: Italian ryegrass; conditions: soil treatment
Method in brief: as §3

common wind-grass = experiment: Test Example 3: weedkilling efficacy through soil treatment; J: common wind-grass; conditions: soil treatment
Method in brief: as §3

Indian mallow = experiment: Test Example 3: weedkilling efficacy through soil treatment; K: Indian mallow; conditions: soil treatment
Method in brief: as §3

redroot pigweed = experiment: Test Example 3: weedkilling efficacy through soil treatment; L: redroot pigweed; conditions: soil treatment
Method in brief: as §3

fig-leafed goosefoot = experiment: Test Example 3: weedkilling efficacy through soil treatment; M: fig-leafed goosefoot; conditions: soil treatment
Method in brief: as §3

chickweed = experiment: Test Example 3: weedkilling efficacy through soil treatment; N: chickweed; conditions: soil treatment
Method in brief: as §3

catchweed = experiment: Test Example 3: weedkilling efficacy through soil treatment; O: catchweed; conditions: soil treatment
Method in brief: as §3

birds-eye speedwell = experiment: Test Example 3: weedkilling efficacy through soil treatment; p: birds-eye speedwell; conditions: soil treatment
Method in brief: as §3

directly sown rice = experiment: Test Example 3: soil treatment, effect on crop; b: directly sown rice; conditions: soil treatment
Method in brief: as §3

corn = experiment: Test Example 3: soil treatment, effect on crop; c: corn; conditions: soil treatment
Method in brief: as §3

wheat = experiment: Test Example 3: soil treatment, effect on crop; e: wheat; conditions: soil treatment
Method in brief: as §3

beet = experiment: Test Example 3: soil treatment, effect on crop; f: beet; conditions: soil treatment
Method in brief: as §3

rapeseed = experiment: Test Example 3: soil treatment, effect on crop; g: rapeseed; conditions: soil treatment
Method in brief: as §3

soybean = experiment: Test Example 3: soil treatment, effect on crop; d: soybean; conditions: soil treatment, treatment dosage 230 g/ha
Method in brief: as §3

CC(C)(C(=O)Nc1cc(Br)cc(F)n1)N1COCN(c2ccccc2)C1=O [A-2-19]
A: barnyard grass, weed kill grade (barnyard grass [1]): 5 (weed kill ratio 90% or more, (practically complete withering)) | B: bulrush, weed kill grade (bulrush [2]): 5 (weed kill ratio 90% or more, (practically complete withering)) | C: oval-leafed pondweed, weed kill grade (oval-leafed pondweed [3]): 5 (weed kill ratio 90% or more, (practically complete withering)) | a: transplanted rice, effect on crop grade (transplanted rice): 3 (weed kill ratio 40% or more, less than 70%) | A (barnyard grass) weedkilling efficacy grade (barnyard grass [4]): 5 (weed kill ratio 90% or more, (practically complete withering)) | B (bulrush) weedkilling efficacy grade (bulrush [5]): 5 (weed kill ratio 90% or more, (practically complete withering)) | C (oval-leafed pondweed) weedkilling efficacy grade (oval-leafed pondweed [6]): 5 (weed kill ratio 90% or more, (practically complete withering)) | D: crabgrass, weedkilling efficacy grade (crabgrass; treatment dosage 320 g/ha): 5 (weed kill ratio 90% or more, (practically complete withering)) | E: green foxtail, weedkilling efficacy grade (green foxtail; treatment dosage 320 g/ha): 5 (weed kill ratio 90% or more, (practically complete withering)) | F: barnyard grass, weedkilling efficacy grade (barnyard grass [7]; treatment dosage 320 g/ha): 5 (weed kill ratio 90% or more, (practically complete withering)) | G: wild oat, weedkilling efficacy grade (wild oat; treatment dosage 320 g/ha): 5 (weed kill ratio 90% or more, (practically complete withering)) | H: black-grass, weedkilling efficacy grade (black-grass; treatment dosage 320 g/ha): 5 (weed kill ratio 90% or more, (practically complete withering)) | I: Italian ryegrass, weedkilling efficacy grade (Italian ryegrass; treatment dosage 320 g/ha): 5 (weed kill ratio 90% or more, (practically complete withering)) | J: common wind-grass, weedkilling efficacy grade (common wind-grass; treatment dosage 320 g/ha): 5 (weed kill ratio 90% or more, (practically complete withering)) | K: Indian mallow, weedkilling efficacy grade (Indian mallow; treatment dosage 320 g/ha): 0 (weed kill ratio 5% or less (practically no effect)) | L: redroot pigweed, weedkilling efficacy grade (redroot pigweed; treatment dosage 320 g/ha): 0 (weed kill ratio 5% or less (practically no effect)) | M: fig-leafed goosefoot, weedkilling efficacy grade (fig-leafed goosefoot; treatment dosage 320 g/ha): 4 (weed kill ratio 70% or more, less than 90%) | N: chickweed, weedkilling efficacy grade (chickweed; treatment dosage 320 g/ha): 5 (weed kill ratio 90% or more, (practically complete withering)) | O: catchweed, weedkilling efficacy grade (catchweed; treatment dosage 320 g/ha): 4 (weed kill ratio 70% or more, less than 90%) | P: birds-eye speedwell, weedkilling efficacy grade (birds-eye speedwell; treatment dosage 320 g/ha): 4 (weed kill ratio 70% or more, less than 90%) | b: directly sown rice, effect on crop grade (directly sown rice; treatment dosage 320 g/ha): 0 (weed kill ratio 5% or less (practically no effect)) | c: corn, effect on crop grade (corn; treatment dosage 320 g/ha): 2 (weed kill ratio 20% or more, less than 40%) | e: wheat, effect on crop grade (wheat; treatment dosage 320 g/ha): 2 (weed kill ratio 20% or more, less than 40%) | f: beet, effect on crop grade (beet; treatment dosage 320 g/ha): 4 (weed kill ratio 70% or more, less than 90%) | g: rapeseed, effect on crop grade (rapeseed; treatment dosage 320 g/ha): 5 (weed kill ratio 90% or more, (practically complete withering))

CC(C)(C(=O)Nc1cc(Cl)cc(C2CC2)n1)N1COCN(c2ccccc2)C1=O [A-2-29]
D: crabgrass, weedkilling efficacy grade (crabgrass; treatment dosage 230 g/ha): 5 (weed kill ratio 90% or more, (practically complete withering)) | E: green foxtail, weedkilling efficacy grade (green foxtail; treatment dosage 230 g/ha): 5 (weed kill ratio 90% or more, (practically complete withering)) | F: barnyard grass, weedkilling efficacy grade (barnyard grass [7]; treatment dosage 230 g/ha): 5 (weed kill ratio 90% or more, (practically complete withering)) | G: wild oat, weedkilling efficacy grade (wild oat; treatment dosage 230 g/ha): 3 (weed kill ratio 40% or more, less than 70%) | H: black-grass, weedkilling efficacy grade (black-grass; treatment dosage 230 g/ha): 5 (weed kill ratio 90% or more, (practically complete withering)) | I: Italian ryegrass, weedkilling efficacy grade (Italian ryegrass; treatment dosage 230 g/ha): 5 (weed kill ratio 90% or more, (practically complete withering)) | J: common wind-grass, weedkilling efficacy grade (common wind-grass; treatment dosage 230 g/ha): 5 (weed kill ratio 90% or more, (practically complete withering)) | K: Indian mallow, weedkilling efficacy grade (Indian mallow; treatment dosage 230 g/ha): 3 (weed kill ratio 40% or more, less than 70%) | L: redroot pigweed, weedkilling efficacy grade (redroot pigweed; treatment dosage 230 g/ha): 2 (weed kill ratio 20% or more, less than 40%) | M: fig-leafed goosefoot, weedkilling efficacy grade (fig-leafed goosefoot; treatment dosage 230 g/ha): 3 (weed kill ratio 40% or more, less than 70%) | N: chickweed, weedkilling efficacy grade (chickweed; treatment dosage 230 g/ha): 4 (weed kill ratio 70% or more, less than 90%) | O: catchweed, weedkilling efficacy grade (catchweed; treatment dosage 230 g/ha): 3 (weed kill ratio 40% or more, less than 70%) | P: birds-eye speedwell, weedkilling efficacy grade (birds-eye speedwell; treatment dosage 230 g/ha): 5 (weed kill ratio 90% or more, (practically complete withering)) | b: directly sown rice, effect on crop grade (directly sown rice; treatment dosage 230 g/ha): 1 (weed kill ratio 5% or more, less than 20%) | c: corn, effect on crop grade (corn; treatment dosage 230 g/ha): 1 (weed kill ratio 5% or more, less than 20%) | d: soybean, effect on crop grade (soybean): 0 (weed kill ratio 5% or less (practically no effect)) | e: wheat, effect on crop grade (wheat; treatment dosage 230 g/ha): 0 (weed kill ratio 5% or less (practically no effect)) | f: beet, effect on crop grade (beet; treatment dosage 230 g/ha): 3 (weed kill ratio 40% or more, less than 70%) | g: rapeseed, effect on crop grade (rapeseed; treatment dosage 230 g/ha): 4 (weed kill ratio 70% or more, less than 90%)
